Reference: US11771661B2, “Method of treating post-traumatic stress disorder” (ICAHN SCHOOL OF MEDICINE AT MOUNT SINAI, priority 2013, dated 2023)
Values joined by “and” are separate entries in the source; they are usually repeats but may differ in a detail not shown here. Equal values may be shown once.

Experiments:
[1] = tested on: patients with chronic PTSD; assay: Example 2: randomized, double-blind, midazolam-controlled crossover trial of IV ketamine, symptom ratings; assay type: in vivo, human; settings: for decrease in CAPS score: at 7 days, single infusion study; for CAPS Total (Week 1), mean / CAPS Total (Week 2), mean / CGI-I (Week 1), mean / CGI-I (Week 2), mean / IES-R Total (Week 1), mean / IES-R Total (Week 2), mean: by treatment group (drug given first); for CAPS Total (Week 1) / CAPS Total (Week 2) / CGI-I (Week 1) / CGI-I (Week 2) / IES-R Total (Day 10) / IES-R Total (Week 1) / IES-R Total (Week 2): individual responder patients, after first infusion; for IES-R_response No, Percent of total / IES-R_response Yes, Percent of total: of all 35 patients; for IES-R_response No, Frequency / IES-R_response Yes, Frequency: response = 50% improvement in IES-R score at 24 hours post-infusion; for IES-R_response No, Row Pct: share of non-responders; for IES-R_response Yes, Row Pct: share of responders; for IES-R_response No, Col Pct / IES-R_response Yes, Col Pct (responded after infusion): share of the treatment group; for IES-R_response Yes, Col Pct (responded after infusion): 24 hours post-infusion
From the text: Patients with chronic PTSD were enrolled in a controlled study. […] Exclusion criteria included lifetime history of psychotic or bipolar disorder, current bulimia or anorexia nervosa, alcohol abuse or dependence in the previous three months, serious unstable medical illness or sleep apnea, active suicidal or homicidal ideation on presentation, or current use of any psychotropic medications. All patients underwent a physical examination and laboratory screening including routine hematologic, biochemical and urine toxicology testing, as well as an electrocardiogram to rule out unstable medical illness and active substance use. To receive the second IV infusion, a CAPS score of at least 50 was required prior to the second infusion. The Institutional Review Board at Mount Sinai approved the study, and informed consent was obtained from all study participants.
Study participants were free of concomitant psychotropic medications for two weeks prior to randomization and for the duration of the study. For each procedure day, patients were assigned to receive a single IV infusion of ketamine hydrochloride (0.5 mg/kg) or midazolam (0.045 mg/kg), administered over 40 minutes. Order of infusions (ketamine-midazolam or midazolam-ketamine) was randomly assigned and administrations were two weeks apart. […] Only the research pharmacy was aware of drug identity, and all study personnel, including investigators, anesthesiologists, raters, patients and data analysts were blinded to randomization order.
Following admission and an overnight fast, an indwelling catheter was placed in the antecubital vein of the non-dominant arm. Pulse, blood pressure, pulse-oximetry and ECG monitoring were instituted (see Murrough J et al. Antidepressant efficacy of ketamine in treatment-resistant major depression: a two-site, randomized controlled trial. The American Journal of Psychiatry. 2013 Oct. 1; 170(10):1134-42). Ratings were administered by a trained rater during the infusion and at 240 minutes after the start of the infusion. A different rater, blinded to the ratings during post-infusion on infusion, administered ratings at pre-infusion baseline, 24 hours (Day 1) post-infusion (before patients were discharged from the hospital), 48 hours (Day 2), 72 hours (Day 3), and 7 days (Day 7) post-infusion. Ratings were also administered at 10 and 13 days post-infusion, though data analyses focused on the first week post-infusion due to the expected duration of ketamine action. Patients were instructed to abstain from taking psychotropic medications and from using alcohol or substances of abuse for the duration of the trial. As described above, patients who scored ≥50 on the CAPS 2 weeks after the first infusion received an infusion of the second study drug.
The primary outcome was PTSD symptom severity at 24 hours post-infusion, assessed with the Impact of Event Scale—Revised (IES-R). Twenty-four hours post-infusion was selected as the primary endpoint, as acute sedating and other side effects were expected to have resolved, while potential symptom improvement was expected to persist at 24 hours. Secondary outcome measures included the Montgomery-Asberg Depression Rating Scale (MADRS), the Quick Inventory of Depressive Symptomatology, Self-Report (QIDS-SR), and Clinical Global Impression-Severity (CGI-S) and -Improvement (GCI-I) scales administered by a study clinician at 24 hours, 48 hours, 72 hours and 7 days post-infusion. The IES-R was also administered at 48 hours, 72 hours, and 7 days post-infusion. Additionally, the CAPS was administered 7 days post-infusion.
A mixed-model approach was employed to test effects of treatment, period, and carryover.

[2] = cited from earlier work
[3] = tested on: treatment-resistant major depression; settings: 0.5 mg/kg intravenous infusion over 40 minutes; cited from earlier work
[4] = tested on: patients with chronic PTSD; assay: Example 2: side effects (PRISE, CADSS, BPRS, YMRS item 1) after IV infusion; assay type: in vivo, human
Description: General side effects and possible dissociative, psychotomimetic, and manic symptoms were measured with the Patient-Rated Inventory of Side Effects (PRISE), Clinician-Administered Dissociative States Scale (CADSS), Brief Psychiatric Rating Scale (BPRS) and Young Mania Rating Scale (YMRS) item 1 (elevated mood), respectively.
Secondary analyses also examined the effect of depression on PTSD symptoms and the interaction between treatment and depression. A mixed model approach was used to examine the effects of treatment, baseline MADRS score, and 24-hour MADRS score using only first-period data. Safety and tolerability were analyzed using descriptive statistics.

breakthrough pain (BTP) = settings: cited from earlier work
[5] = tested on: patients with treatment resistant depression (TRD), co-morbid current PTSD; assay: Example 1: open-label ketamine infusion in treatment resistant depression patients, case studies with co-morbid PTSD; assay type: in vivo, human; settings: for IES score: baseline 48
Description: In a ketamine infusion study in patients with treatment resistant depression (TRD), ketamine (0.5 mg/kg IV) was administered open-label and combined with pre-infusion treatment with a single oral dose of lamotrigine (300 mg) or placebo administered under double-blind conditions. Preliminary analyses were recently performed on a sample of 16 patients. […] A strong positive correlation between individual childhood trauma (abuse and/or neglect) and the antidepressant response (MADRS: r=0.55, p=0.03; QIDS-SR: r=0.59, p=0.02).
The effect of ketamine on Hamilton Anxiety Rating Scale (HAM-A) scores was also measured. A strong positive correlation between the magnitude of the ketamine-induced reduction in HAM-A scores and personal history of childhood trauma measured using the Childhood Trauma Questionnaire (CTQ; n=15, r=0.59, p=0.02) was observed. […] Patient A, suffered from distressing intrusive memories, nightmares, flashbacks, hypervigilance, poor concentration, and depressed mood. Patient A described their PTSD and MDD symptoms as chronic, but having intensified over time, due to ongoing events in their life.
After observing the magnitude of the therapeutic effect of ketamine in Patient A, TRD patients with a co-morbid current PTSD diagnosis were administered the Clinician-Administered PTSD Scale (CAPS) and the Impact of Events Scale (IES) before and after ketamine infusion. […] The day after ketamine infusion, Patient M reported that they felt an “intellectual distance” from the emotional content of prior traumatic events that allowed them to feel more in control. Patient M further described feeling relieved of a compulsion to continuously analyze their past, identify ways in which they might have circumvented trauma, and subsequently punish themself for their failure to avoid trauma. One week post-infusion, Patient M's CAPS score had dropped by 90% and could be considered a remission (defined as CAPS<20). Two weeks post-infusion, Patient M maintained their “intellectual distance” from the emotional content associated with their trauma.

[6] = Side effects of IV administration of ketamine; assay type: in vivo, human
Description: IV administration of ketamine can be on an as needed basis, e.g., when symptoms of PTSD appear. For IV administration, ketamine (e.g., doses of at least 0.5 mg/kg) may be administered over a period of 40 minutes. IV administration may be continued for up to 1 week, or longer. IV administration of ketamine may also be effected at least twice, at least three times, at least four times, at least five time, at least six times, at least seven times per week, and may be continued over a period of two, three, four, five, six, seven, eight, nine or 10 weeks, or more. […] Any side effects observed are typically mild, e.g., euphoria, elevated BP, increased libido, perceptual disturbances, and furthermore these effects typically abate within 80 minutes post-infusion.

[7] = IN vs IV; cited from earlier work
[8] = ketamine vs midazolam, cross-over 24 hours, n = 29
[9] = ketamine vs midazolam, first infusion 24 hours, n = 41
[10] = 0.5 mg/kg IV open-label, 16 TRD patients

CNC1(c2ccccc2Cl)CCCCC1=O (centres unmarked) [ketamine, 2-(2-chlorophenyl)-2-(methylamino)-cyclohexanone]
CAPS score, mean difference ketamine-midazolam ([1]; 7 days post-infusion, p-value=0.20): 8.7
decrease in CAPS score [1]: 27 (sd=20)
CAPS Total (Week 1), mean [1]: 54.00
CAPS Total (Week 2), mean [1]: 56.21
CGI-I (Week 1), mean [1]: 3.22
CGI-I (Week 2), mean [1]: 3.15
IES-R Total (Week 1), mean [1]: 25.76
IES-R Total (Week 2), mean [1]: 25.67
CAPS Total (Week 1) [1]: 16 and 45 and 41 and 33 and 54 and 22 and 13
CAPS Total (Week 2) [1]: 11 (2×) and 25 and 28 and 19 and 44 and 45
CGI-I (Week 1) [1]: 2 (5×) and 3
CGI-I (Week 2) [1]: 2 (3×) and 3
IES-R Total (Day 10) [1]: 4 and 3 (3×) and 15 and 25.14 and 28
IES-R Total (Week 1) [1]: 1 and 8.38 and 10 and 2 and 18 and 17 and 3
IES-R Total (Week 2) [1]: 6 and 1 and 14 and 0 and 26 and 28 and 2
IES-R, differences of least squares means estimate ([1]; ketamine vs midazolam, collapsed across 24, 48, 72 hours and seven days, first period, p=0.046): −8.32
QIDS-SR, differences of least squares means estimate ([1]; ketamine vs midazolam, collapsed across time, first period, p=0.050): −2.73
MADRS, differences of least squares means estimate ([1]; ketamine vs midazolam, collapsed across time, first period, p=0.052): −3.99
CGI-I, mean difference [1, 8]: 1.2
CGI-S, mean difference [1, 8]: 1.0
IES-R Avoidance, mean difference [1, 8]: 4.8
IES-R Hyperarousal, mean difference [1, 8]: 3.9
IES-R Re-experiencing, mean difference [1, 8]: 4.0
IES-R total, mean difference [1, 8]: 12.7
MADRS, mean difference [1, 8]: 3.7
QIDS, mean difference [1, 8]: 0.17
CGI-I, mean difference [1, 9]: 0.80
CGI-S, mean difference [1, 9]: 0.90
IES-R Avoidance, mean difference [1, 9]: 3.3
IES-R Hyperarousal, mean difference [1, 9]: 2.6
IES-R Re-experiencing, mean difference [1, 9]: 2.6
IES-R total, mean difference [1, 9]: 8.6
MADRS, mean difference [1, 9]: 2.7
QIDS, mean difference [1, 9]: 1.5
IES-R_response No, Percent of total [1]: 25.71%
IES-R_response Yes, Percent of total [1]: 28.57%
β of treatment assignment on IES-R score at 24 hours post-infusion ([1]; period-1 analysis, 41 patients, ketamine vs midazolam, p=0.0496): 6.5
IES-R_response No, Frequency [1]: 9
IES-R_response Yes, Frequency [1]: 10
IES-R_response No, Row Pct [1]: 45.00 Pct
IES-R_response Yes, Row Pct [1]: 66.67 Pct
IES-R_response No, Col Pct [1]: 47.37 Pct
IES-R_response Yes, Col Pct (responded after infusion) [1]: 52.63%
dose at which mild adverse effects (dysphoria, hallucinations) can occur ([2]; in vivo): greater than 50 mg
total intranasal dose usually required for mild adverse effects ([2]; intranasal): greater than 100 mg
duration of improvements in depression [3]: up to 1 week
serious adverse events [3]: no serious adverse events
time to improvements in depression post-injection [3]: ≤ 2 h
psychotic or manic symptoms ([4]; BPRS, YMRS item 1): No emergence of significant psychotic or manic symptoms
patients requiring acute beta-blocker treatment for blood pressure elevation ([4]; during infusion, systolic >180 and/or diastolic >100): Three
time by which dissociative symptoms had resolved ([4]; from start of infusion): ≤ 120 min
time of peak of dissociative symptoms ([4]; from start of infusion): 40 min
safety and tolerability ([4]; single dose IV): safe and well-tolerated
breakthrough pain vs placebo (breakthrough pain (BTP); 10-50 mg intranasal in incremental 10 mg doses every 90 seconds): lower BTP
side effects (breakthrough pain (BTP); 10-50 mg intranasal): very few side effects
MADRS clinical depression scores, baseline to 24 hours post-infusion [5, 10]: reduced clinical depression scores
self-reported mood, QIDS-SR [5, 10]: improved
IES score ([5]; Patient M, +1 week): 5
CAPS score ([5]; Patient M, +1 week, baseline 81): 8
IES score ([5]; Patient M, +2 weeks): 15
CAPS score ([5]; Patient M, +2 weeks, baseline 81): 27
IES score ([5]; Patient M, +40 min post-ketamine): 33
IES score ([5]; Patient M, +240 min): 3
IES score ([5]; Patient M, +24 hours): 16
IES score ([5]; Patient M, +72 hours): 5
drop in CAPS score ([5]; Patient M, one week post-infusion, baseline 81): 90%
serious adverse events caused by IV administration [6]: No serious adverse events
time by which mild side effects typically abate post-infusion [6]: ≤ 80 min
intranasal plasma levels (pain treatment) lower than intravenous ketamine studies in depression [7]: 3-4 fold

Cc1ncc2n1-c1ccc(Cl)cc1C(c1ccccc1F)=NC2 [midazolam]
number of patients whose symptoms remained significantly improved ([1]; at 2 weeks, CAPS score <50, drug given first): one
decrease in CAPS score [1]: 13 (sd=18)
CAPS Total (Week 1), mean [1]: 65.69
CAPS Total (Week 2), mean [1]: 70.81
CGI-I (Week 1), mean [1]: 3.80
CGI-I (Week 2), mean [1]: 3.91
IES-R Total (Week 1), mean [1]: 36.32
IES-R Total (Week 2), mean [1]: 32.51
CAPS Total (Week 1) [1]: 50
CAPS Total (Week 2) [1]: 30
CGI-I (Week 1) [1]: 4
CGI-I (Week 2) [1]: 4
IES-R Total (Day 10) [1]: 6
IES-R Total (Week 1) [1]: 12.57
IES-R Total (Week 2) [1]: 5
IES-R_response No, Percent of total [1]: 31.43%
IES-R_response Yes, Percent of total [1]: 14.29%
IES-R_response No, Frequency [1]: 11
IES-R_response Yes, Frequency [1]: 5
IES-R_response No, Row Pct [1]: 55.00 Pct
IES-R_response Yes, Row Pct [1]: 33.33 Pct
IES-R_response No, Col Pct [1]: 68.75 Pct
IES-R_response Yes, Col Pct (responded after infusion) [1]: 31.25%
